Data: patent US9180122B2, “5- or 6-substituted 3-hydroxy-2 (1 H)-pyridinones as D-amino acid oxidase (DAAO) inhibitors in therapy of diseases such as schizophrenia, cognitive disorder and pain” (Takeda Pharmaceutical Company Limited, priority 2011, dated 2015)

molecular target: Human DAAO enzyme (Homo sapiens (Human), UniProt P14920); experiment: In Vitro DAAO Enzyme Assay (Amplex Red detection of H2O2 from D-Serine); assay type: biochemical; details: 10 mM D-Serine, 60 minutes at 25° C.
Description: The functional activity of compounds inhibiting the DAAO enzyme was determined by utilizing the co-product of the catalysis of D-Serine, H2O2 which can be quantitatively measured using the Amplex Red (Invitrogen) detection. Amplex® Red reagent is a colorless substrate that reacts with hydrogen peroxide (H2O2) with a 1:1 stoichiometry in the presence of […] to produce highly fluorescent resorufin (excitation/emission maxima=570/585 nm). The changes in fluorescence were monitored by a fluorescence plate reader, Envision (Perkin Elmer) and increases in DAAO activity were readily detected upon addition of D-Serine and suppression of this response observed with the application of test compounds.
The Km of D-Serine was measured for each enzyme batch to maintain consistency; this Km was used in subsequent assays.
On the day of the assay compounds were serially diluted in DMSO before being diluted 1:20 with assay buffer (20 mM Tris ph 7.4). A 5 μl portion of assay buffer was added to the wells of a 384 clear base black walled plate (Corning), 5 μl of diluted compound was then added via automated plate to plate transfer using the Bravo liquid handler (Agilent technologies) followed by 5 μl of human DAAO enzyme and then 5 μl D-Serine 50 mM was added to all but the negative control wells (final concentration of 10 mM). Finally 5 μl Amplex red reagent (Invitrogen) was added to all wells as per manufacturer's protocol. The plate was incubated for 60 minutes in the dark at 25° C. and the fluorescence in each well was measured in the Envision plate reader.
The IC50 values for compounds were determined from ten point half log scale dose-response studies and represent the concentration of compound required to […] 50% inhibition of DAAO activity in the presence of 10 mM D-Serine. Concentration response curves were generated using the average of duplicate wells for each data point and analyzed using nonlinear regression and four parameter curve fit.

Chain of Human DAAO enzyme (P14920 whole entry): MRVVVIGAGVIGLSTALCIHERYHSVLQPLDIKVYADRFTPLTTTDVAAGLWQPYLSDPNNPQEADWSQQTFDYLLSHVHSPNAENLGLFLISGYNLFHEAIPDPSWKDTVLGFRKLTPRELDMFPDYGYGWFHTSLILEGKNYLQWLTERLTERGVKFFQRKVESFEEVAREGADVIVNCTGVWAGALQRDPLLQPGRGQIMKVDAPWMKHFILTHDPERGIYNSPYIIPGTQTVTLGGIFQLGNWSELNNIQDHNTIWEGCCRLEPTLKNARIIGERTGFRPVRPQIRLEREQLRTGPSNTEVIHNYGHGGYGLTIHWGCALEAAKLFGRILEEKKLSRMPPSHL

| SMILES | IC50 [µM] |
| --- | --- |
| Cc1cccc(CSc2c[nH]c(=O)c(O)c2)c1 [Example 4, 3-Hydroxy-5-[(3-methylbenzyl)sulfanyl]pyridin-2(1H)-one] | 0.24 |
| CC(Sc1c[nH]c(=O)c(O)c1)c1ccccc1 (centres unmarked) [Example 6, 3-Hydroxy-5-[(1-phenylethyl)sulfanyl]pyridin-2(1H)-one] | 1.3 |
| O=c1[nH]cc(SCc2ccccc2Cl)cc1O [Example 7, 5-[(2-Chlorobenzyl)sulfanyl]-3-hydroxypyridin-2(1H)-one] | 0.21 |
| O=c1[nH]cc(SCc2cccc(C(F)(F)F)c2)cc1O [Example 8, 3-Hydroxy-5-{[3-(trifluoromethyl)benzyl]sulfanyl}pyridin-2(1H)-one] | 0.19 |
| Cc1ccccc1CSc1c[nH]c(=O)c(O)c1 [Example 9, 3-Hydroxy-5-[(2-methylbenzyl)sulfanyl]pyridin-2(1H)-one] | 0.39 |
| O=c1[nH]cc(SCc2cc(F)cc(Cl)c2)cc1O [Example 10, 5-[(3-Chloro-5-fluorobenzyl)sulfanyl]-3-hydroxypyridin-2(1H)-one] | 0.23 |
| O=c1[nH]cc(SCc2ccc(C(F)(F)F)nc2)cc1O [Example 13, 3-Hydroxy-5-({[6-(trifluoromethyl)pyridin-3-yl]methyl}-sulfanyl)pyridin-2(1H)-one] | 0.16 |
| Cc1cccnc1CSc1c[nH]c(=O)c(O)c1 [Example 14, 3-Hydroxy-5-{[(3-methylpyridin-2-yl)methyl]sulfanyl}pyridin-2(1H)-one] | 1.9 |
| Cc1noc(C)c1CSc1c[nH]c(=O)c(O)c1 [Example 15, 5-{[(3,5-Dimethyl-1,2-oxazol-4-yl)methyl]sulfanyl}-3-hydroxypyridin-2(1H)-one] | 1.9 |
| Cc1nc(CSc2c[nH]c(=O)c(O)c2)co1 [Example 16, 3-Hydroxy-5-{[(2-methyl-1,3-oxazol-4-yl)methyl]sulfanyl}-pyridin-2(1H)-one] | 1.4 |
| O=c1[nH]cc(SCc2ccccn2)cc1O [Example 17, 3-Hydroxy-5-[(pyridin-2-ylmethyl)sulfanyl]pyridin-2(1H)-one] | 0.46 |
| O=c1[nH]cc(SCc2ccc(Cl)cn2)cc1O [Example 19, 5-{[(5-Chloropyridin-2-yl)methyl]sulfanyl}-3-hydroxypyridin-2(1H)-one] | 0.36 |
| O=c1[nH]cc(SCc2cccnc2)cc1O [Example 22, 3-Hydroxy-5-[(pyridin-3-ylmethyl)sulfanyl]pyridin-2(1H)-one] | 0.25 |
| Cc1ccc(CSc2c[nH]c(=O)c(O)c2)nc1 [Example 23, 3-Hydroxy-5-{[(5-methylpyridin-2-yl)methyl]sulfanyl}pyridin-2(1H)-one] | 0.49 |
| O=c1[nH]cc(SCc2cnccn2)cc1O [Example 24, 3-Hydroxy-5-[(pyrazin-2-ylmethyl)sulfanyl]pyridin-2(1H)-one] | 1 |
| Cc1ccccc1CCc1c[nH]c(=O)c(O)c1 [Example 26, 3-Hydroxy-5-(2-methylphenethyl)pyridin-2(1H)-one] | 0.35 |
| O=c1[nH]cc(CCc2ccccc2)cc1O [Example 27, 3-Hydroxy-5-(2-phenylethyl)pyridin-2(1H)-one] | 0.14 |
| Cc1cccc(CCc2c[nH]c(=O)c(O)c2)c1 [Example 28, 3-Hydroxy-5-[2-(3-methylphenyl)ethyl]pyridin-2(1H)-one] | 0.26 |
| O=c1[nH]cc(S(=O)(=O)Cc2ccccc2)cc1O [Example 33, 5-(Benzylsulfonyl)-3-hydroxypyridin-2(1H)-one] | 0.49 |
| O=c1[nH]c(SCc2ccccc2)ccc1O [Example 35, 6-(benzylsulfanyl)-3-hydroxypyridin-2(1H)-one] | 1.4 |

More lines, in order of falling IC50, values ahead:

| IC50 [µM] | SMILES |
| --- | --- |
| 0.19 | O=c1[nH]cc(SCc2ccccc2)cc1O [Example 1, 5-(Benzylsulfanyl)-3-hydroxypyridin-2(1H)-one] |
| 0.17 | O=c1[nH]cc(CCc2ccccc2F)cc1O [Example 32, 5-[2-(2-Fluorophenyl)ethyl]-3-hydroxypyridin-2(1H)-one] |
| 0.13 | COc1ccc(CSc2c[nH]c(=O)c(O)c2)cc1 [Example 21, 3-Hydroxy-5-[(4-methoxybenzyl)sulfanyl]pyridin-2(1H)-one] |
| 0.13 | O=c1[nH]cc(CCc2cccc(F)c2)cc1O [Example 31, 5-[2-(3-Fluorophenyl)ethyl]-3-hydroxypyridin-2(1H)-one] |
| 0.13 | O=c1[nH]cc(SCc2cccc(F)c2)cc1O [Example 34, 5-[(3-Fluorobenzyl)sulfanyl]-3-hydroxypyridin-2(1H)-one] |
| 0.1 | O=c1[nH]cc(SCc2ccncc2)cc1O [Example 18, 3-Hydroxy-5-[(pyridin-4-ylmethyl)sulfanyl]pyridin-2(1H)-one] |
| 0.083 | COc1ccc(CSc2c[nH]c(=O)c(O)c2)cn1 [Example 25, 3-Hydroxy-5-{[(6-methoxypyridin-3-yl)methyl]-sulfanyl}-pyridin-2(1H)-one] |
| 0.079 | CCc1ccc(CSc2c[nH]c(=O)c(O)c2)cc1 [Example 12, 5-[(4-Ethylbenzyl)sulfanyl]-3-hydroxypyridin-2(1H)-one] |
| 0.061 | O=c1[nH]cc(CCc2ccc(F)cc2)cc1O [Example 30, 5-[2-(4-Fluorophenyl)ethyl]-3-hydroxypyridin-2(1H)-one] |
| 0.055 | O=c1[nH]cc(SCc2cccc(Cl)c2)cc1O [Example 5, 5-[(3-Chlorobenzyl)sulfanyl]-3-hydroxypyridin-2(1H)-one] |
| 0.052 | Cc1ccc(CCc2c[nH]c(=O)c(O)c2)cc1 [Example 29, 3-Hydroxy-5-[2-(4-methylphenyl)ethyl]pyridin-2(1H)-one] |
| 0.047 | O=c1[nH]cc(SCc2ccc(F)cc2)cc1O [Example 11, 5-[(4-Fluorobenzyl)sulfanyl]-3-hydroxypyridin-2(1H)-one] |
| 0.045 | O=c1[nH]cc(SCc2ccc(F)c(F)c2)cc1O [Example 20, 5-[(3,4-Difluorobenzyl)sulfanyl]-3-hydroxypyridin-2(1H)-one] |
| 0.035 | O=c1[nH]cc(SCc2ccc(Cl)cc2)cc1O [Example 2, 5-[(4-Chlorobenzyl)sulfanyl]-3-hydroxypyridin-2(1H)-one] |
| 0.029 | Cc1ccc(CSc2c[nH]c(=O)c(O)c2)cc1 [Example 3, 3-Hydroxy-5-[(4-methylbenzyl)sulfanyl]pyridin-2(1H)-one] |
